Several values for one entry are separate records, joined by “and”; a condition that tells them apart may be missing. Equal entries are not always repeated. Where two headings read alike, the source gives them in different places.
What was measured:
[1] = system: MDCK cells co-expressing GFP-K-RASG12V and mCherry-CAAX; test: Cytotoxicity in mislocalization screen (death of all cells in well); conditions: drug caused death of all cells in well at 30 μM
mGFP-K-RASG12V = mGFP-K-RASG12V (Homo sapiens (Human), UniProt P01116, G12V); test: K-Ras mislocalization assay (confocal microscopy, Manders coefficient); type: cell-based; design: key to Emax: Manders coefficient: fraction of mCherry-CAAX co-localizing with GFP-K-Ras; conditions: for IC50: 48 h treatment, read-out: IC50 (μM), KRASG12V mislocalization; for Emax: maximal effect, Manders coefficient
Description: Madine Darby Canine Kidney epithelial cells (MDCK) stably co-expressing mGFP-tagged full length oncogenic mutant K-Ras (GFP—K-RASG12V) or mGFP-LactC2 (peptide probe for phosphatidylserine) and mCherry-tagged to the amino acids 179-189 of H-RasC181S, C184S (mCherry-CAAX, localizes primarily to endomembranes) were grown in DMEM-high glucose/sodium pyruvate/10% FBS. The medium was supplemented with 1× Penicillin/Streptomycin for fluorescence microscopy assays, to avoid any microbial contamination from the test compounds added. KLE and Hec50 cells were maintained in DMEM-F-12 medium supplemented with 10% FBS. Hec-1A and Hec-1B cells were grown in McCoy's 5a medium supplemented with 10% FBS. ESS-1 cells were grown in RPMI 1640 medium supplemented with 20% FBS. MPanc96 cells were grown in DMEM supplemented with 10% FBS, MiaPaCa-2 cells in DMEM supplemented with 10% FBS and 2.5% horse serum and all other cell lines were grown in RPMI 1640 supplemented with 10% FBS. All cancer cell media were supplemented with ×Penicillin/Streptomycin. All cell lines were grown at 37° C. with 5% CO2.
MDCK co-expressing GFP—K-RASG12V or LactC2 and mCherry-CAAX were grown on coverslips, treated with 0.1% vehicle (DMSO) or various concentrations of drugs for 48 h, and fixed with 4% paraformaldehyde. The coverslips were mounted in mowiol and imaged by confocal microscopy (Nikon A1) using a 60× objective. Using ImageJ software v1.42q, images were converted to 8-bit, and a threshold to a control pixel of each image was set. As a measure of K-Ras/LactC2 mislocalization, the fraction of mCherry-CAAX co-localizing with mGFP-K-RASG12V was calculated using a Manders coefficient plugin downloaded from Wright Cell Image Facility. The fraction of mCherry-CAAX co-localizing with mGFP-RASG12V (Mander's coefficient) is proportional to K-Ras mislocalization.

[2] = batch 4 compounds, MDCK cells, 48 h, title calls it IC50, read-out: EC50

| EC50 (mGFP-K-RASG12V; [2]) | Compound | Cytotoxic at 30 μM [1] | IC50 (mGFP-K-RASG12V; MDCK cells) | Emax (mGFP-K-RASG12V; MDCK cells, 48 h) | further results |
| --- | --- | --- | --- | --- | --- |
| – | CN1CCN(CCN(CC=C(c2ccccc2)c2ccccc2)[C@@H]2CCc3ccccc32)CC1 [NY0369b, (R)-N-(3,3-diphenylallyl)-N-(2-(4-methylpiperazin-1-yl)ethyl)-2,3-dihydro-1H-inden-1-amine] | Yes | 90.1 µM | 0.866 | – |
| – | C[C@H](c1cccc(Cl)c1)N(CC=C(c1ccccc1)c1ccccc1)CCN1CCN(C)CC1 [NY0370b, (R)-N-(1-(3-chlorophenyl)ethyl)-N-(2-(4-methylpiperazin-1-yl)ethyl)-3,3-diphenylprop-2-en-1-amine] | Yes | 11.2 µM | 0.767 | Emax (mGFP-K-RASG12V; MDCK cells, 48 h, listed as 15g): 0.77 ± 0.07 |
| – | COc1ccc([C@@H](C)N(CC=C(c2ccccc2)c2ccccc2)CCN2CCN(CC(C)C)CC2)cc1 [NY0372, (R)-N-(2-(4-isobutylpiperazin-1-yl)ethyl)-N-(1-(4-methoxyphenyl)ethyl)-3,3-diphenylprop-2-en-1-amine] | No | 16.4 µM | 0.868 | – |
| – | CCN(CC=C(c1ccccc1)c1ccccc1)[C@H](C)c1ccc(OC)cc1 [NY0429, (R)-N-ethyl-N-(1-(4-methoxyphenyl)ethyl)-3,3-diphenylprop-2-en-1-amine] | No | 10.6 µM | 0.835 | IC50 (mGFP-K-RASG12V; MDCK cells, listed as 11b): 10.6 µM; Emax (mGFP-K-RASG12V; MDCK cells, 48 h, listed as 11b): 0.84 ± 0.02 |
| – | CCN(CC=C(c1ccccc1)c1ccccc1)[C@@H](C)c1ccc(OC)cc1 [NY0431] | No | 2.91 µM | 0.756 | – |
| – | COc1ccc([C@H](C)N(CC=C(c2ccccc2)c2ccccc2)CCN(C)C)cc1 [NY0434] | No | 4.69 µM | 0.835 | – |
| – | COc1ccc([C@@H](C)N(CC=C(c2ccccc2)c2ccccc2)CCN(C)C)cc1 [NY0435, (R)-N^1-(3,3-diphenylallyl)-N^1-(1-(4-methoxyphenyl)ethyl)-N^2,N^2-dimethylethane-1,2-diamine] | Yes | 11.2 µM | 0.658 | IC50 (mGFP-K-RASG12V; MDCK cells, listed as 12a): 11.2 µM; Emax (mGFP-K-RASG12V; MDCK cells, 48 h, listed as 12a): 0.66 ± 0.01 |
| – | COc1ccc([C@H](C)N(CC=C(c2ccccc2)c2ccccc2)CCN2CC2)cc1 [NY0436] | No | 14 µM | 0.716 | – |
| – | COc1ccc([C@@H](C)N(CC=C(c2ccccc2)c2ccccc2)CCCC=O)cc1 [NY0445, (R)-4-((3,3-diphenylallyl)(1-(4-methoxyphenyl)ethyl)amino)butanal] | No | 2.02 µM | 0.694 | – |
| – | COc1ccc([C@@H](C)N(CC=C(c2ccccc2)c2ccccc2)CCCCO)cc1 [NY0448, (R)-4-((3,3-diphenylallyl)(1-(4-methoxyphenyl)ethyl)amino)butan-1-ol] | Yes | 12.7 µM | 0.777 | – |
| – | COc1ccc([C@@H](C)N(CC=C(c2ccccc2)c2ccccc2)CCCCN2CCN(C)CC2)cc1 [NY0449, (R)-N-(3,3-diphenylallyl)-N-(1-(4-methoxyphenyl)ethyl)-4-(4-methylpiperazin-1-yl)butan-1-amine] | Yes | – | 0.810 | KRAS PM localization inhibition activity (in words) (mGFP-K-RASG12V): significantly decreased potency; Emax (mGFP-K-RASG12V; MDCK cells, 48 h, listed as 25): 0.81 ± 0.03 |
| – | COc1cccc([C@@H](C)N(CC=C(c2ccccc2)c2ccccc2)CCN2CCN(C)CC2)c1 [NY0452, (R)-N-(1-(3-methoxyphenyl)ethyl)-N-(2-(4-methylpiperazin-1-yl)ethyl)-3,3-diphenylprop-2-en-1-amine] | Yes | 2.81 µM | 0.752 | IC50 (mGFP-K-RASG12V; MDCK cells, listed as 15c): 2.8 µM; Emax (mGFP-K-RASG12V; MDCK cells, 48 h, listed as 15c): 0.75 ± 0.04 |
| – | COc1ccc([C@H](C)N(CC=C(c2ccccc2)c2ccccc2)CCN2CCN(C)CC2)cc1 [NY0454, (S)-N-(1-(4-methoxyphenyl)ethyl)-N-(2-(4-methylpiperazin-1-yl)ethyl)-3,3-diphenylprop-2-en-1-amine] | Yes | 1.24 µM | 0.827 | IC50 (mGFP-K-RASG12V; MDCK cells, listed as 15a): 1.2 µM; Emax (mGFP-K-RASG12V; MDCK cells, 48 h, listed as 15a): 0.83 and 0.83 ± 0.02; fold potency loss / decreased potency (mGFP-K-RASG12V; versus 12f (NY0244)): 12 fold |
| 1.59 µM | COc1ccc([C@@H](C)N(CC=C(c2ccccc2)c2ccccc2)CCCO)cc1 [NY0479, (R)-3-((3,3-diphenylallyl)(1-(4-methoxyphenyl)ethyl)amino)propan-1-ol] | No | – | 0.871 | – |
| 1.78 µM | COc1ccc([C@@H](C)N(CC=C(c2ccccc2)c2ccccc2)CCCN2CCCC2)cc1 [NY0502, (R)-N-(1-(4-methoxyphenyl)ethyl)-3,3-diphenyl-N-(3-(pyrrolidin-1-yl)propyl)prop-2-en-1-amine] | Yes | – | 0.878 | – |
| 0.91 µM | CCNC(=O)N(CC=C(c1ccccc1)c1ccccc1)[C@H](C)c1ccc(OC)cc1 [NY0504, (R)-1-(3,3-diphenylallyl)-3-ethyl-1-(1-(4-methoxyphenyl)ethyl)urea] | No | – | 0.845 | – |
| 1.69 µM | CCCCNC(=O)N(CC=C(c1ccccc1)c1ccccc1)[C@H](C)c1ccc(OC)cc1 [NY0507, (R)-3-butyl-1-(3,3-diphenylallyl)-1-(1-(4-methoxyphenyl)ethyl)urea] | No | – | 0.858 | – |
| – | C(CNC1(c2ccccc2)CCCCC1)=C(c1ccccc1)c1ccccc1 [NY0514, N-(3,3-diphenylallyl)-1-phenylcyclohexan-1-amine] | No | – | 0.802 | EC50 (mGFP-K-RASG12V): 1.34 µM |
| 4.36 µM | C[C@H](c1ccc(Cl)cc1)N(CC=C(c1ccccc1)c1ccccc1)CCN1CCCC1 [NY0519, (R)-N-(1-(4-chlorophenyl)ethyl)-3,3-diphenyl-N-(2-(pyrrolidin-1-yl)ethyl)prop-2-en-1-amine] | Yes | – | 0.553 | – |
| – | COc1ccc([C@@H](C)N(CC=C(c2ccccc2)c2ccccc2)C(=O)NC2CCCCC2)cc1 [NY0521, (R)-3-cyclohexyl-1-(3,3-diphenylallyl)-1-(1-(4-methoxyphenyl)ethyl)urea] | No | – | 0.816 | – |
| 4.05 µM | C[C@@H](NCCN1c2ccccc2CCc2ccccc21)c1ccc(F)cc1 [NY0552, (R)-2-(10,11-dihydro-5H-dibenzo[b,f]azepin-5-yl)-N-(1-(4-fluorophenyl)ethyl)ethan-1-amine] | No | – | 0.426 | – |

| Compound | EC50 (mGFP-K-RASG12V; [2]) | Cytotoxic at 30 μM [1] | IC50 (mGFP-K-RASG12V; MDCK cells) | Emax (mGFP-K-RASG12V; MDCK cells, 48 h) | further results |
| --- | --- | --- | --- | --- | --- |
| C[C@H](c1ccc(F)cc1)N(CC=C(c1ccccc1)c1ccccc1)CCN1CCN(C)CC1 [NY0505, (R)-N-(1-(4-fluorophenyl)ethyl)-N-(2-(4-methylpiperazin-1-yl)ethyl)-3,3-diphenylprop-2-en-1-amine] | 1.51 µM | Yes | 1.5 µM | 0.832 | Emax (mGFP-K-RASG12V; MDCK cells, 48 h, listed as 15e): 0.83 ± 0.02 |
| C[C@H](c1ccc(Cl)cc1)N(CC=C(c1ccccc1)c1ccccc1)CCN1CCN(C)CC1 [NY0518, (R)-N-(1-(4-chlorophenyl)ethyl)-N-(2-(4-methylpiperazin-1-yl)ethyl)-3,3-diphenylprop-2-en-1-amine] | 3.84 µM | Yes | 3.8 µM | 0.695 | Emax (mGFP-K-RASG12V; MDCK cells, 48 h, listed as 15f): 0.70 ± 0.02 |
| C[C@H](c1ccc([N+](=O)[O-])cc1)N(CC=C(c1ccccc1)c1ccccc1)CCN1CCN(C)CC1 [NY0522, (R)-N-(2-(4-methylpiperazin-1-yl)ethyl)-N-(1-(4-nitrophenyl)ethyl)-3,3-diphenylprop-2-en-1-amine] | 5.17 µM | Yes | 5.2 µM | 0.621 | Emax (mGFP-K-RASG12V; MDCK cells, 48 h, listed as 15h): 0.62 ± 0.02 |

— US12043602B2, “Fendiline derivatives” (The Board of Regents of the University of Texas System, priority 2019, dated 2024)
